Several values for one entry are separate records, joined by “and”; a condition that tells them apart may be missing. Identical values can stand only once.
Assays:
[1] = Metabolic stability assay in mouse liver microsomes; assay type: in vitro ADME; conditions: after 60 min
Experimental: (§1) Metabolic Stability Assay. Pooled liver microsomes from mice (male) and humans (male) were purchased from Sekisui XenoTech, LLC, Kansas City, KS, USA. Metabolic stability assays were performed in the presence of an NADPH-regenerating system consisting of 5 mM glucose-6-phosphate, 5 U/mL glucose-6-phosphate dehydrogenase, and 1 mM NADP^+. Liver microsomes (20 mg/mL), NADPH-regenerating system, and 4 mM MgCl2·6 H2O in 0.1 M TRIS-HCl-buffer (pH 7.4) were preincubated for 5 min at 37 °C and 750 rpm on a shaker. The reaction was started by adding the preheated compound at 10 mM resulting in a final concentration of 0.1 mM. […] The samples were vortexed for 30 s and centrifuged (21910 relative centrifugal force, 4 °C, 20 min). The supernatant was used directly for LC-MS analysis.
(§2) All compound incubations were conducted at least in triplicates. Additionally, a negative control containing BSA (20 mg/mL) instead of liver microsomes and a positive control using Verapamil instead of the compound was performed. A limit of 1% organic solvent during incubation was not exceeded. […]

[2] = Metabolic stability assay in human liver microsomes; assay type: in vitro ADME
Experimental: as §1, §2

platelets = assay: Flow cytometry assay of platelet degranulation (P-Selectin surface expression in PRP); assay type: cell-based, human; conditions: PRP pre-incubated with compound (100 µM), then CRP-XL (1 µg/mL); % ±SEM normalized to CRP-XL-treated vehicle PRP
Experimental: Platelet Degranulation Studies of Derivatives. Concurrent with the β-Arrestin recruitment potency optimization, the compounds were also tested and developed according to their functional activity. To determine the ability of a compound to modulate platelets, P-Selectin surface expression was measured. P-Selectin is a surface protein involved in cell adhesion mechanisms and can be found on activated platelets. After induction of platelet aggregation in platelet-rich plasma (PRP), treatment with the respective compound should therefore lead to a significant reduction in P-Selectin expression. […]. […]. Similarly, platelet degranulation potency was highly sensitive toward "linker"-changes (Structure C, Table 1). A distinct trend could not be registered. […]. Flow Cytometry Assay. The inhibition of platelet degranulation was determined via flow cytometry experiments. Platelets were treated with collagen-related peptide (CRP-XL, CambCol Laboratories, Cambridge, UK) and the platelets' activation state was determined (Geue, S.; Aurbach, K.; Manke, M.-C.; Manukjan, G.; Münzer, P.; Stegner, D.; Brähler, C.; Walker-Allgaier, B.; Märklin, M.; Borst, C. E.; Quintanilla-Fend, L.; Rath, D.; Geisler, T.; Salih, H. R.; Seizer, P.; Lang, F.; Nieswandt, B.; Gawaz, M.; Schulze, H.; Pleines, I.; Borst, O. Pivotal role of pdk1 in megakaryocyte cytoskeletal dynamics and polarization during platelet biogenesis. Blood 2019, 134, 1847-1858; and Malehmir, M.; Pfister, D.; Gallage, S.; Szydlowska, M.; Inverso, D.; Kotsiliti, E.; Leone, V.; Peiseler, M.; Surewaard, B. G. J.; Rath, D.; Ali, A.; Wolf, M. J.; Drescher, H.; Healy, M. E.; Dauch, D.; Kroy, D.; Krenkel, O.; Kohlhepp, M.; Engleitner, T.; Olkus, A.; Sijmonsma, T.; Volz, J.; Deppermann, C.; Stegner, D.; Helbling, P.; Nombela-Arrieta, C.; Rafiei, A.; Hinterleitner, M.; Rail, M.; Baku, F.; Borst, O.; Wilson, C. L.; Leslie, J.; O'Connor, T.; Wes-ton, C. J.; Chauhan, A.; Adams, D. H.; Sheriff, L.; Teijeiro, A.; Prinz, M.; Bogeska, R.; An-stee, N.; Bongers, M. N.; Notohamiprodjo, M.; Geisler, T.; Withers, D. J.; Ware, J.; Mann, D. A.; Augustin, H. G.; Vegiopoulos, A.; Milsom, M. D.; Rose, A. J.; Lalor, P. F.; Llovet, J. M.; Pinyol, R.; Tacke, F.; Rad, R.; Matter, M.; Djouder, N.; Kubes, P.; Knolle, P. A.; Unger, K.; Zender, L.; Nieswandt, B.; Gawaz, M.; Weber, A.; Heikenwalder, M. Platelet gpibα is a mediator and potential interventional target for nash and subsequent liver cancer. Nat. Med. 2019, 25, 641-655). Briefly, PRP was isolated from peripheral human blood collected in citrate-phosphate-dextrose solution with adenine (CPDA) and diluted with phosphate-buffered saline (PBS) (Sigma Aldrich Co., Ltd., St. Luis, Missouri, USA) supplemented with CaCl2 and MgCl2. PRP (106 platelets /sample) was preincubated with the respective compound (100 µM) for 15 min. Samples were treated with 1 µg/ml CRP-XL (CambCol Laboratories, Cambridge, UK) for 30 min at room temperature in the presence of the respective fluorochrome-conjugated antibody against P-Selectin (CD62P-FITC; Beckman Coulter, Brea, CA, USA). Subsequently, samples were fixed in 0.5% paraformaldehyde and analyzed on a FACS-Calibur flow cytometer (FACS-Caliber flow cytometer, Becton-Dickinson, East Rutherford, NJ, USA). Mean fluorescence intensity (MFI) was used as a quantitative measurement of platelet surface expression.

HEK293 cells = assay: RealTime-Glo MT cell viability assay; assay type: cell-based; conditions: concentrations of 1 µM and below, up to 72 h
Experimental: Cell viability studies. […].
Cell Viability Assay. RealTime-Glo™ MT Cell Viability Assay (Promega Corporation, Madison, WI, USA) was performed using THP1 cells and HEK293 cells as indicated in the manufacturer's manual to measure a compound's cytotoxicity on cells. In brief, in a white solid-bottom 96-well plate cells (5x10^3/well) were seeded and incubated with the respective compounds diluted in DMEM (Gibco, Carlsbad, CA, USA). After cell seeding viability reagent is added. Subsequently, cells were incubated with the compound and viability reagent containing medium at 37 °C, 5% CO2 for 72 h. The luminescence signal was determined after 1, 24, 48, and 72 hours on a GloMax®-Multi Detection System plate reader (Promega Corporation, Madison, Wl, USA).

Kinetic solubility assay = assay type: physicochemical; conditions: PBS buffer with 1% DMSO, 4 °C, aqueous buffer, kinetic from dmso stock, 1% DMSO, 99% PBS buffer (pH 7.4)
Experimental: Solubility Assay. A 100 mL flask with phosphate-buffered saline was prepared from NaCl, KCI, Na2HPO4, KH2PO4, and distilled water. The buffer was adjusted to pH 7.4 with HCl. Afterwards, 10mM stock solutions of compounds in DMSO were prepared. 10 µL compound stock solution was added to 990 µL PBS in Eppendorf tubes. As a reference, 10 µL compound stock solution was added to 990 µL HPLC-grade MeOH in Eppendorf tubes. All tubes were centrifuged (16000 relative centrifugal force, 4 °C, 20 min). Subsequently, 600 µL supernatant was extracted carefully and filled into HPLC vials. […] Compounds solubility was calculated by AUC of compound in PBS divided by AUC of reference solution multiplied by concentration of the compound in solution.

For `CCCCN(CCCNC(=O)c1ccc(-c2ccccc2)s1)Cc1ccccc1` [Compound 27, N-(3-(benzyl(butyl)amino)propyl)-5-phenylthiophene-2-carboxamide], the compound remained [1] was “around 24%”, the compound remained ([2]; 60 min) was “Around 69%” and the “metabolic stability (in words)” value ([2]; over the course of 60 min) was “stable”. The P-Selectin expression reduction (platelets) was 77% and 77±6%, the “cell toxicity / tolerability (in words)” value (HEK293 cells) was “tolerated well” and the solubility (Kinetic solubility assay) was 10 µg/mL. For the same molecule, the solubility (Kinetic solubility assay; average of three independent experiments ± SEM) was 28 ± 4 µM.
